Patent publication US10450572B2, “Androgen receptor variant inhibitors and methods of using” (Regents of the University of Minnesota, priority 2016, dated 2019)
“Also recorded” adds a separate entry of the source. {Fluorescein} = fluorescein label

How the values were obtained:
AR-FL [1] = experiment: AR subcellular fractionation and western blot; format: cell-based, human; conditions: 22Rv1-undup3 cells; 1 nM, 24 hours; FIG. 8
Procedure: For AR subcellular fractionation, 22Rv1-undup3 cells were seeded in RPMI medium supplemented with 10% CSS for 24 hours and treated with either ethanol (vehicle) or 1 nM mibolerone (synthetic androgen) for 24 hours. Cells were washed with 1×PBS, harvested in hypotonic buffer, and subjected to subcellular fractionation as described elsewhere (see, e.g., Chan et al., 2012, J. Biol. Chem., 287:19736-49). Lysates in 1× Laemmli buffer were loaded in equal volumes on either 7.5% or 4-15% polyacrylamide gels (Biorad TGX) and electrophoresed at 200v for 30 minutes.
Blots were incubated with antibodies specific to CPSF1 (Bethyl, A301-580, 1:1000), AR (Santa Cruz Santa Cruz Biotechnology N-20, 1:2000), extracellular signal-regulated kinase-2 (ERK-2; Santa Cruz Biotechnology D-2, 1:4000), and AR-V7 (Precision Antibodies, 1:1000). HRP-conjugated goat-anti-mouse (#sc 2005, lot#D1515), and goat-anti-rabbit (#sc 2004, lot#B1315) secondary antibodies were obtained from Santa Cruz and were used at 1:10000 dilutions. Blots were incubated in enhanced chemiluminescence substrate (WesternBright, Advansta #K12045-D50 or SuperSignal West Pico, Thermo #1859674) and exposed to X-ray film for chemiluminescence detection.

AR-V7 mRNA = experiment: specificity test with morpholinos tiling the CE3 PAS: AR-V7 mRNA; format: cell-based, human; conditions: 22Rv1 cells; 10 μM morpholino, 24 hours after transfection; FIG. 19B
Procedure: (§1) GeneTools' design tool was used to design morpholinos targeting upstream and downstream regions of AR CE3. Sequences were as follows:
(§2) 22Rv1 cells were transfected with 10 μM control and morpholinos tiling upstream (us) and downstream (ds) of the CE3 PAS (us 100, us 50, CE3 pAM, ds 50, ds 150).
(§3) Total RNA from tumor tissue was purified using the Promega Reliaprep Tissue kit according to manufacturer instructions, including the on-column DNAse treatment. RNA was eluted in nuclease free water. Reverse transcription and quantitative PCR were performed as described in Example 2. Data were analyzed using the ΔΔCt method and normalized to actin-2 (internal control).

[2] = test system: AR-V2, AR-V5, AR-V7, and AR-V9 mRNA; experiment: AR-V mRNA expression in E43 cells; format: cell-based; conditions: E43 cells transfected with CE3 pAM; FIG. 3B
Procedure: (§4) E43 cells were cultured in RPMI-1640 and supplemented with 10% FBS and 500 μg/mL penicillin/streptomycin. For androgen blockade experiments, E43 cells were cultured in RPMI-1640 supplemented with 10% charcoal stripped FBS and 500 μg/mL penicillin/streptomycin. Transient transfections were performed using a BTX Square Wave electroporator. Transient transfection of E43 cells with the indicated concentration of CE3 pAM were carried out in RPMI-1640 supplemented with 10% FBS, and subsequently plated in appropriate culture medium. When appropriate, E43 cells were treated with 10 μM enzalutamide (MDV-3100, Selleck Chemicals) in indicated cell culture medium. E43 cells in cell culture medium were treated with vivo-CE3 pAM in 1X phosphate buffered saline at the indicated concentrations.

full-length AR (AR-FL) = experiment: full-length AR expression in E43 cells; format: cell-based; conditions: E43 cells transfected with CE3 pAM; FIG. 3A
Procedure: as §4

AR-V proteins = experiment: AR-V protein expression in E43 cells (western blot); format: cell-based; conditions: E43 cells transfected with CE3 pAM; FIG. 3A
Procedure: as §4

22Rv1-undup3 cells = experiment: crystal violet growth assay of 22Rv1-undup3 cells; format: cell-based, human; conditions: 22Rv1-undup3 cells transfected with 10 μM, FIG. 11D
Procedure: (§5) 22Rv1 cells (CRL-2505) were obtained from ATCC (Manassas, Va., USA) and cultured according to ATCC protocol. LNCaP95 cells were cultured in phenol red free RMPI 1640 (Invitrogen) supplemented with 10% fetal bovine serum and 1× penicillin/streptomycin. VCaP cells (ATCC CRL-2876) were cultured in DMEM medium (Invitrogen) supplemented with 10% fetal bovine serum and 1× penicillin/streptomycin. ATCC authenticates human cell lines using short tandem repeat analysis. Cell lines were routinely monitored for mycoplasma infection by regularly evaluating aliquots of supernatants from cells in culture for mycoplasma contamination using a PCR-based method as described elsewhere (see, e.g., Uphoff et al., 2012, J. Biomed. Biotechnol., 2012:267678).
Cell/siRNA mixtures were electroporated in a 4-mm gap-width cuvette (BTX) with a BTX Square Wave Electroporator (22Rv1 and sublines: 350 V, 10 ms pulse, LNCaP95: 305 V, 10 ms pulse). Following a 15-minute recovery, cells were seeded in appropriate culture medium. […]
(§6) Electroporated 22Rv1 cells and sublines were seeded at 20,000 cells per well in 24 well dishes in RPMI 1640 supplemented with 10% charcoal-stripped FBS. […] Crystal violet staining assays were performed as described elsewhere (see, e.g., Li et al., 2013, Cancer Res., 73:483-9) and absorbance was measured at 560 nm. Significance was assessed by two tailed t-tests in GraphPad.

22Rv1 cells = experiment: crystal violet growth assay of 22Rv1 cells; format: cell-based, human; conditions: parental 22Rv1 cells transfected with 10 μM; androgen-deplete conditions; FIG. 11D
Procedure: as §5
GeneTools' design tool was used to design a 25-mer consisting of the sequence 5′-[…]-3′ (SEQ ID NO:2) targeted to the CE3 PAS (CE3 pAM). As a control, a standard commercially available nontargeting control morpholino was used (GeneTools). […]
as §6

E43 cells = experiment: crystal violet growth assay of E43 cells; format: cell-based; conditions: FIG. 3C; for cell growth (crystal violet staining): E43 cells
Procedure: as §4
20,000 E43 cells transfected with 10 μM CE3 pAM or control morpholino were plated in 24-well dishes in the indicated culture medium and subjected to the indicated drug treatments. Crystal violet assays were performed on cells on days 2, 4, 6, 8, 11, and 14. Briefly, cells were fixed in 1% glutaraldehyde in 1X PBS and stained with 0.5% crystal violet in distilled water. At the end of the timecourse, fixed and stained cells were subjected to treatment with Sorenson's buffer (6.1 ml of 0.1 M disodium citrate, 3.9 ml of 0.1N HCl, and 10 ml of 95% ethanol) to release dye. Absorbance was measured at 560 nm.

AR mRNA = experiment: specificity test with morpholinos tiling the CE3 PAS: AR mRNA; format: cell-based, human; conditions: 22Rv1 cells; 10 μM morpholino, 24 hours after transfection; FIG. 19B
Procedure: as §1, §2, §3

AR-FL [3] = experiment: AR-FL expression after morpholino transfection; format: cell-based, human; conditions: FIG. 11C
Procedure: as §5, with “2012:267678). […]” for “2012:267678).”
(§7) RNA was isolated from cells using the Reliaprep RNA Miniprep System (Promega) and purified according to kit manufacturer instructions, including a 30-minute room temperature DNase treatment. […] RNA concentration and integrity were assessed by denaturing gel electrophoresis or by spectrophotometry with a NanoDrop 2000 (ThermoFisher). […]
(§8) Quantitative PCR was performed using Quanta PerfeCTa master mix, 200 nM forward and reverse primers, and 2 μL input cDNA (serially diluted in nuclease free water 1:50 for 18S samples) in 20 μL reactions. […] Cycle thresholds (Ct) were determined using the Biorad CFX manager software. […]

[4] = test system: AR-V7, AR-V9 (EX3:CE5), AR-V1 (EX3:CE1), AR-V6 (EX3:CE2a); experiment: AR-V mRNA and protein expression after morpholino transfection (RT-qPCR, western blot); format: cell-based, human; conditions: FIG. 11C
Procedure: as §5, with “2012:267678). […]” for “2012:267678).”
as §7, §8

[5] = 22Rv1-undup3 cells transfected with 10 μM
[6] = 22Rv1 cells transfected with 10 μM

Molecule | nuclear localization of AR-FL (AR-FL [1]) | AR-V7 mRNA levels (AR-V7 mRNA) | expression of AR-V2, AR-V5, AR-V7, and AR-V9 mRNA [2] | expression of full-length AR (AR-FL) (full-length AR (AR-FL)) | expression of AR-V proteins (AR-V proteins) | growth (crystal violet) (22Rv1-undup3 cells; androgen-deplete conditions) | growth (crystal violet) (22Rv1-undup3 cells; androgen-replete conditions (1 nM DHT)) | growth (crystal violet) (22Rv1 cells) | reduction in cell growth assessed by crystal violet staining (E43 cells; E43 cells transfected, charcoal stripped serum, plus 10 uM enzalutamide) | cell growth (crystal violet staining) (E43 cells; 10 μM morpholino transfected, maximum androgen blockade castration+enzalutamide) | cell growth (crystal violet staining) (E43 cells; transfected, androgenic conditions) | AR mRNA levels (AR mRNA) | expression of AR-FL (AR-FL [3]; [5]) | expression of AR-FL (AR-FL [3]; [6]) | mRNA and protein expression of AR-V7, AR-V9, AR-V1, AR-V6 [4, 5] | mRNA and protein expression of AR-V7, AR-V9, AR-V1, AR-V6 [4, 6]
C[C@@H]1CC2=CC(=O)CC[C@@H]2[C@H]2CC[C@@]3(C)[C@@H](CC[C@]3(C)O)[C@@H]21 [mibolerone] | strong nuclear localization; also recorded: localizes to the nucleus | – | – | – | – | – | – | – | – | – | – | – | – | – | – | –
CE3 pAM: 25-mer morpholino 5′-GTGTATTAATGGCTTTATTAAGGGA-3′ (SEQ ID NO:2) designed to block the AR CE3 poly A signal (all phosphorodiamidate morpholino (PMO), 3' {Fluorescein}; further chemistry not fully specified) | – | reduced | blocks; also recorded: blocked expression | increase expression | blocks; also recorded: dramatically reduced | reduction in growth | inhibited growth | reduction in growth | ~50% | blocks growth; also recorded: inhibited cell growth | not under androgenic conditions | increased | increase | increase | reduction | reduction
